# Like-named read-outs stand apart in the source and are kept apart here.
# Legend:
# Interferon-gamma = Interferon-gamma secretion from PMA/ionomycin-stimulated PBMCs; assay type: cell-based; settings: stimulated human PBMCs, result in words
# Procedure: (§1) The compounds of Formula (I) may be investigated for inhibition of pro-inflammatory cytokines Interleukin (IL)-[…], 6,8 and 17A, Interferon (IFN)-gamma and Tumour necrosis factor (TNF)-α in peripheral blood mononuclear cells (PBMCs) isolated from fresh human buffy coats by centrifugation on Lymphoprep™ (Stemcell Technologies). All human cells are grown in cell culture medium RPMI-1640 supplemented with 1% penicillin/streptomycin and 5% heat inactivated fetal bovine serum.
# (§2) PBMCs stimulated with PMA/ionomycin are incubated for 24 hours containing the compounds under investigation, reconstituted in DMSO. The secreted levels of Interferon-gamma and Tumour necrosis factor-α are measured in the cell culture supernatant using a Human Quantikine ELISA Kit and the cell viability is quantified using Trypan blue.
# Interleukin-1β = Interleukin-1β secretion from LPS-stimulated PBMCs; assay type: cell-based; settings: stimulated human PBMCs, result in words
# Procedure: as §1
# (§3) PBMCs stimulated with LPS (Salmonella enterica serotype typhimurium) are incubated for 24 hours containing the compounds under investigation, reconstituted in dimethyl sulfoxide (DMSO). The secreted levels of Interleukin-1β and Interleukin-6 are measured in the cell culture supernatant using a cytometric bead array and the cell viability is quantified using Trypan blue.
# Interleukin-6 = Interleukin-6 secretion from LPS-stimulated PBMCs; assay type: cell-based; settings: stimulated human PBMCs, result in words
# Procedure: as §1, §3
# Interleukin-8 = Interleukin-8 secretion from PBMCs stimulated with TNF-α and IL-17A; assay type: cell-based; settings: stimulated human PBMCs, result in words
# Procedure: as §1
# (§4) PBMCs stimulated with a mixture between TNF-α and IL-17A are incubated for 24 hours whilst containing the compounds under investigation, reconstituted in DMSO. The secreted levels of Interleukin-8 are measured in the cell culture supernatant using a cytometric bead array and the cell viability is quantified using Trypan blue.
# Interleukin-17A = Interleukin-17A secretion from PMA/ionomycin-stimulated PBMCs; assay type: cell-based, human; settings: for inhibition of IL-17 / IL-17A: stimulated human PBMCs, result in words
# Procedure: as §1
# as §4, with “PMA/ionomycin” for “a mixture between TNF-α and IL-17A”, “hours” for “hours whilst”, “Interleukin-17A” for “Interleukin-8”
# (§5) 3,5-Diamino-6-(diphenylmethyl)-1,2,4-triazine was also investigated for […] inhibition in a human PBMC model: […]
# Tumour necrosis factor-α = Tumour necrosis factor-α secretion from PMA/ionomycin-stimulated PBMCs; assay type: cell-based; settings: stimulated human PBMCs, result in words
# Procedure: as §1, §2
# IL-2 = IL-2 release from stimulated CD4-positive T cells; assay type: cell-based, human
# Procedure: (§6) The compounds may be investigated for inhibition of pro-inflammatory cytokines Interleukin-2, 4 and 13 in human CD4-positive T cells isolated from fresh isolated PBMCS using a CD4-positive T cell isolation kit.
# (§7) CD4-positive T cells stimulated with beads coated with antibodies against CD2, CD3 and CD28 are incubated for 48 hours containing the compounds under investigation, reconstituted in DMSO. The secreted levels of Interleukin-2, 4 and 13 are measured in the cell culture supernatant using a cytometric bead array and the cell viability is measured using an MTT (3-(4,5-dimethylthiazol-2-yl)-2,5-diphenyltetrazolium bromide) assay.
# (§8) Secreted IL-4 levels may be measured using electrochemiluminescence (MSD kits, Meso Scale Discovery), while secreted IL-2 levels may be measured using proximity homogenous time-resolved fluorescence (HTRF) and the amount of living cells may be measured by addition of resazurin (PrestoBlue®).
# IL-4 = IL-4 release from stimulated CD4-positive T cells; assay type: cell-based, human
# Procedure: as §6, §7, §8
# PBMC = PBMC viability in the IL-17A human PBMC model; assay type: cell-based; settings: Homo sapiens, PBMC
# Procedure: as §4, with “PMA/ionomycin” for “a mixture between TNF-α and IL-17A”, “hours” for “hours whilst”, “Interleukin-17A” for “Interleukin-8”
# as §5
# [1] = PBMC viability in the IL-17A human PBMC model; assay type: cell-based; settings: PBMCs stimulated with PMA/ionomycin; human PBMC model, maximum effect; read-out: Inhibition of PMBC viability, Max effect
# Procedure: as §4, with “PMA/ionomycin” for “a mixture between TNF-α and IL-17A”, “hours” for “hours whilst”, “Interleukin-17A” for “Interleukin-8”
# as §5
# T cell = T cell proliferation in the IL-2/IL-4 inhibition assays; assay type: cell-based, human
# Procedure: as §6, §7, §8
smiles,measurement,setting,value
"Nc1nnc(-c2sc(Cl)c(Cl)c2Cl)c(N)n1 [Compound 1, 3,5-diamino-6-[2-(3,4,5-trichlorothienyl)]-1,2,4-triazine]",inhibition of IFN-γ,Interferon-gamma,high inhibition
same,inhibition of IL-1β,Interleukin-1β,high inhibition
same,inhibition of IL-6,Interleukin-6,high inhibition
same,inhibition of IL-8,Interleukin-8,high inhibition
same,inhibition of IL-17 / IL-17A,Interleukin-17A,moderate inhibition
same,inhibition of TNF-α,Tumour necrosis factor-α,high inhibition
"Nc1nnc(C(c2ccccc2)c2ccccc2)c(N)n1 [Compound 2, 3,5-Diamino-6-(diphenylmethyl)-1,2,4-triazine]",inhibition of IFN-γ,Interferon-gamma,high inhibition
same,inhibition of IL-1β,Interleukin-1β,moderate inhibition
same,EC50,"IL-2; Homo sapiens, CD4 positive, absolute EC50, read-out: Inhibition of IL-2 release, Abs EC50",0.015 µM
same,Emax,"IL-2; Homo sapiens, CD4 positive, maximum effect, read-out: Inhibition of IL-2 release, Max Effect",97%
same,EC50,"IL-2; Homo sapiens, CD4 positive, relative EC50, read-out: Inhibition of IL-2 release, Rel EC50",0.028 µM
same,inhibition of IL-2,IL-2; result in words,good level of inhibition
same,EC50,"IL-4; Homo sapiens, CD4 positive, absolute EC50, read-out: Inhibition of IL-4 release, Abs EC50",0.0613 µM
same,Emax,"IL-4; Homo sapiens, CD4 positive, maximum effect, read-out: Inhibition of IL-4 release, Max Effect",99%
same,EC50,"IL-4; Homo sapiens, CD4 positive, relative EC50, read-out: Inhibition of IL-4 release, Rel EC50",0.0505 µM
same,EC50,"IL-4; relative EC50, read-out: Inhibition of IL-4 release, Rel EC50",0.0584 µM
same,inhibition of IL-4,IL-4; result in words,good level of inhibition
same,inhibition of IL-6,Interleukin-6,moderate inhibition
same,EC50,"PBMC; read-out: Inhibition of PMBC viability, Abs EC50",> 10 µM
same,EC50,"PBMC; read-out: Inhibition of PMBC viability, Rel EC50",44 µM
same,cytotoxicity at 24 h,[1],38%
same,inhibition of IL-8,Interleukin-8,high inhibition
same,EC50,"Interleukin-17A; human PBMC model, absolute EC50, read-out: Inhibition of IL-17A release, Abs EC50",0.317 µM
same,Emax,"Interleukin-17A; human PBMC model, maximum effect, read-out: Inhibition of IL-17A release, Max effect",86%
same,EC50,"Interleukin-17A; human PBMC model, relative EC50, read-out: Inhibition of IL-17A release, Rel EC50",0.261 µM
same,inhibition of IL-17 / IL-17A,Interleukin-17A,high inhibition
same,EC50,"T cell; Homo sapiens, T-cell, absolute EC50, read-out: Inhibition of T cell proliferation, Abs EC50",> 10 µM
same,Emax,"T cell; Homo sapiens, T-cell, maximum effect, read-out: Inhibition of T cell proliferation, Max Effect",28%
same,EC50,"T cell; Homo sapiens, T-cell, relative EC50, read-out: Inhibition of T cell proliferation, Rel EC50",> 10 µM
same,inhibition of T cell proliferation,T cell; result in words,without significant inhibition
same,inhibition of TNF-α,Tumour necrosis factor-α; at the top concentration,high inhibition
